Source: PubChem BioAssay (NCI)
Several values for one entry are separate records, joined by “and”; a condition that tells them apart may be missing. Equal entries are not always repeated.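 Cells were grown in 96-well plates and exposed to each compound for 48 hours at five concentrations; endpoints were interpolated linearly between bracketing concentrations, or set to the highest concentration if not reached. Abbreviation: GI50, concentration required for 50% inhibition of growth. TGI denotes the concentration required for complete inhibition of growth.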 *1 amine or outer side, *2 acyl side, *3 side chain or, on linkers, in order; H or OH if unused. Where a SMILES comes first, the peptide text is derived from it. Bridges are numbered along the chain shown (N, C = ends). Roman numbers before positions name the chains, in order. [ ]: non-standard residue; d: D form. Actinocin(9to1) = Cc1c2oc3c(C)ccc(C(=O)[*:1])c3nc-2c(C(=O)[*:2])c(N)c1=O; NMeV = CN[CH](C(=O)O)C(C)C; Sar = CNCC(=O)O

Experiments:
Assay in all cases: inhibition of tumour cell growth, NCI panel, 48 h
TK-10 renal = test system: TK-10 renal
CAKI-1 renal = test system: CAKI-1 renal
ACHN renal = test system: ACHN renal
MOLT-4 leukemia = test system: MOLT-4 leukemia
KM12 colon = test system: KM12 colon
HS 578T breast = test system: HS 578T breast
NCI-H226 lung = test system: NCI-H226 lung
MALME-3M melanoma = test system: MALME-3M melanoma
LOX IMVI melanoma = test system: LOX IMVI melanoma
PC-3 prostate = test system: PC-3 prostate

Row | Structure (SMILES) | GI50 (TK-10 renal) | TGI (TK-10 renal) | TGI (CAKI-1 renal) | TGI (ACHN renal) | TGI (MOLT-4 leukemia) | TGI (KM12 colon) | TGI (HS 578T breast) | TGI (NCI-H226 lung) | TGI (MALME-3M melanoma) | TGI (LOX IMVI melanoma) | TGI (PC-3 prostate) | GI50 (LOX IMVI melanoma) | GI50 (ACHN renal) | GI50 (MOLT-4 leukemia) | GI50 (PC-3 prostate) | GI50 (CAKI-1 renal) | GI50 (KM12 colon) | GI50 (HS 578T breast) | GI50 (NCI-H226 lung) | GI50 (MALME-3M melanoma)
1 | Cc1c2oc3c(C)ccc(C(=O)NC4C(=O)NC(Cc5ccccc5)C(=O)N5CCCC5C(=O)N(C)CC(=O)N(C)C(C(C)C)C(=O)OC4C)c3nc-2c(C(=O)NC2C(=O)NC(Cc3ccccc3)C(=O)N3CCCC3C(=O)N(C)CC(=O)N(C)C(C(C)C)C(=O)OC2C)c(N)c1=O (configuration not stated) (I: TFP[Sar][NMeV] / II: TFP[Sar][NMeV]; ester I:1-I:C, II:1-II:C; linker I:N-II:N via Actinocin(9to1); configuration not given here) | 0.0102 µM | 1.65 µM and 5.66 µM | 0.21 µM | 1.21 µM and 1.98 µM | < 0.001 µM | 1.05 µM | 0.0472 µM and 0.055 µM | 0.0214 µM and 0.0312 µM | 0.0187 µM |  |  |  |  |  |  |  |  |  |  | 
2 | O=C(NNC(=S)Nc1ccccc1)c1nsc2ccccc12 |  | > 100 µM |  | > 100 µM | 98.5 µM | > 100 µM |  |  |  | > 100 µM |  |  |  |  |  |  |  |  |  | 
3 | CC1C(NNC(N)=O)Oc2cc3c(cc2C1c1ccccc1O)OCO3 (configuration not stated) |  | > 100 µM | > 100 µM | > 100 µM | > 100 µM | > 100 µM | > 100 µM | > 100 µM | 97.2 µM | > 100 µM | 90.6 µM |  |  |  |  |  |  |  |  | 
4 | CC(C)(C)c1ccc(C(O)CCCN2CCC(C(O)(c3ccccc3)c3ccccc3)CC2)cc1 (configuration not stated) |  |  |  | 3.03 µM | 5.32 µM |  |  |  | 3.03 µM and 23.7 µM | 2.82 µM |  | 1.5 µM | 1.67 µM | 2.16 µM | 1.61 µM |  |  |  |  | 
5 | CN1CCN(Cc2c[nH]c3c2C(=O)c2c(c(O)c4ccccc4c2O)C3=O)CC1 | 1.46 µM | 14.9 µM | 18.8 µM | 23.5 µM | > 100 µM | 15.2 µM | 32.8 µM | 36.5 µM | 29.3 µM | 3.8 µM | 21.6 µM | 1.92 µM | 11.3 µM | 4.02 µM | 5.53 µM | 3.16 µM | 3.46 µM | 17 µM | 16.8 µM | 12.7 µM
